Assay results taken from PubChem BioAssay (NCI).
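A five-concentration, 48-hour dose response in 96-well plates underlies each endpoint, interpolated linearly between surrounding concentrations. At the TGI there is no net growth.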

Columns and labels:
Test in all cases: inhibition of tumour cell growth, NCI panel, 48 h
[1] = tested on: 786-0 renal
[2] = tested on: COLO 205 colon
[3] = tested on: HCC-2998 colon
[4] = tested on: HCT-116 colon
[5] = tested on: HCT-15 colon
[6] = tested on: KM12 colon
[7] = tested on: M14 melanoma
[8] = tested on: MDA-MB-435
[9] = tested on: MOLT-4 leukemia
[10] = tested on: OVCAR-5 ovarian
[11] = tested on: RPMI-8226 leukemia
[12] = tested on: SF-268 CNS
[13] = tested on: SF-539 CNS
[14] = tested on: SK-OV-3 ovarian
[15] = tested on: SN12C renal
[16] = tested on: SNB-75 CNS
[17] = tested on: SR leukemia
[18] = tested on: SW-620 colon
[19] = tested on: T-47D breast
[20] = tested on: UO-31 renal

Structure (SMILES) | TGI [1] | TGI [2] | TGI [3] | TGI [4] | TGI [5] | TGI [6] | TGI [7] | TGI [8] | TGI [9] | TGI [10] | TGI [11] | TGI [12] | TGI [13] | TGI [14] | TGI [15] | TGI [16] | TGI [17] | TGI [18] | TGI [19] | TGI [20]
N#Cc1cc([N+](=O)[O-])ccc1NC(=O)/C(=N\NC(=O)c1ccncc1)C(c1cnc2ccc([N+](=O)[O-])cc2n1)[N+](=O)[O-] (stereo not given) | 6.16 µM | 17.9 µM | 22.2 µM | 7.33 µM | 5.22 µM | 7.53 µM | 3.23 µM | 2.59 µM | 22.9 µM | 22.4 µM | 41.7 µM | 11.6 µM | 3.63 µM | 20 µM | 3.71 µM | 3.83 µM | 46.8 µM | 5.5 µM | 18.4 µM | 7.6 µM
O[C@H]1[C@H](O)[C@@H](O)[C@@]2(O)CC[C@@H]1N2 | > 100 µM | > 100 µM | > 100 µM | > 100 µM | > 100 µM | > 100 µM | > 100 µM | > 100 µM | > 100 µM | > 100 µM | > 52.4 µM | > 100 µM | > 100 µM | > 100 µM | > 100 µM | > 100 µM | > 100 µM | > 100 µM | > 100 µM | > 100 µM
O=c1cc(CSc2c(-c3ccccc3)c(=O)n(-c3ccccc3)c(=S)n2-c2ccccc2)[nH]c(=O)[nH]1 | > 100 µM | > 100 µM | > 100 µM | > 100 µM | > 100 µM | > 100 µM | > 100 µM | > 100 µM | > 100 µM | > 100 µM | > 100 µM | > 100 µM | > 100 µM | > 100 µM | > 100 µM | > 100 µM | > 100 µM | > 100 µM | > 100 µM | > 100 µM
CCOC(=O)Cn1c(=O)c2nc(SC)sc2n(-c2ccccc2)c1=S | 30.9 µM | > 100 µM | > 100 µM | > 100 µM | > 100 µM | 94.9 µM | 70.4 µM | > 100 µM | > 100 µM | > 100 µM | > 100 µM | > 100 µM | 31.6 µM | 60.7 µM | > 100 µM | 12.5 µM | > 100 µM | > 100 µM | > 100 µM | 15 µM
CC(Oc1ccccc1Cl)C(=O)NN1C(=O)CC(=O)NC1=S (stereo not given) | > 100 µM | > 100 µM | > 100 µM | > 100 µM | > 100 µM | > 100 µM | > 100 µM | > 100 µM | > 100 µM | > 100 µM | > 100 µM | > 100 µM | > 100 µM | > 100 µM | > 100 µM | > 100 µM | > 100 µM | > 100 µM | > 100 µM | > 100 µM
O=C(CC(C(=O)c1cccs1)c1ccsc1)c1ccccc1 (stereo not given) | > 100 µM | > 100 µM | > 100 µM | > 100 µM | > 100 µM | > 100 µM | > 100 µM | > 100 µM | > 100 µM | > 100 µM | > 100 µM | > 100 µM | > 100 µM | > 100 µM | > 100 µM | > 100 µM | > 100 µM | > 100 µM | > 100 µM | > 100 µM
COC(=O)C1=C(OC(=O)c2ccccc2)C(C(=O)OC)[C@@]2(O)[C@@H](C(=O)OC)[C@H](C)C[C@@H]1[C@@H]2C(=O)OC (stereo not given in full) | > 100 µM | 41.1 µM | 89.7 µM | > 100 µM | > 100 µM | > 100 µM | > 100 µM | > 100 µM | > 100 µM | > 100 µM | > 100 µM | > 100 µM | 34.5 µM | > 100 µM | > 100 µM | > 100 µM | > 100 µM | > 100 µM | > 100 µM | > 100 µM
CC(=NNC(=S)Nc1cccc(C)c1)c1cccc(C(C)=NNC(=S)Nc2cccc(C)c2)n1 | 63.6 µM | 38.5 µM | > 100 µM | 37.8 µM | > 100 µM | 59.3 µM | 39.3 µM | > 100 µM | 61.6 µM | > 100 µM | > 100 µM | > 100 µM | 46.1 µM | > 100 µM | > 100 µM | 69.2 µM | 40.8 µM | 70.5 µM | > 100 µM | 86.3 µM
Cc1occc1C(=S)Nc1ccc(Cl)c(/C=N/OC(C)(C)C)c1 | 49.9 µM | 34.1 µM | 34.2 µM | 27 µM | 31.2 µM | 32.3 µM | 40.9 µM | 31.7 µM | 31.8 µM | 31.3 µM | 47.8 µM | 54.8 µM | > 100 µM | 58.7 µM | 31.8 µM | 56.7 µM | 35.6 µM | 36.9 µM | 42.6 µM | 27 µM
